ChEMBL document CHEMBL4190370, “Emerging New Targets for the Treatment of Resistant Fungal Infections” (J Med Chem, 2018)
pIC50, pKd, pKi: −log10 of the molar value.

Columns and labels:
Candida [1] = test: Antifungal activity against Candida; type: functional
Candida [2] = test: Antifungal activity against Candida sp.; type: functional
[3] = molecular target: T1, Mediator of RNA polymerase II transcription subunit 15 (Candida glabrata (strain ATCC 2001 / CBS 138 / JCM 3761 / NBRC 0622 /NRRL Y-65) (Yeast) (Torulopsis glabrata), UniProt Q6FRS9); test: Binding affinity to Candida glabrata Gal11A KIX domain; set-up: species or system Nakaseomyces glabratus
T1 sequence (Q6FRS9 whole entry): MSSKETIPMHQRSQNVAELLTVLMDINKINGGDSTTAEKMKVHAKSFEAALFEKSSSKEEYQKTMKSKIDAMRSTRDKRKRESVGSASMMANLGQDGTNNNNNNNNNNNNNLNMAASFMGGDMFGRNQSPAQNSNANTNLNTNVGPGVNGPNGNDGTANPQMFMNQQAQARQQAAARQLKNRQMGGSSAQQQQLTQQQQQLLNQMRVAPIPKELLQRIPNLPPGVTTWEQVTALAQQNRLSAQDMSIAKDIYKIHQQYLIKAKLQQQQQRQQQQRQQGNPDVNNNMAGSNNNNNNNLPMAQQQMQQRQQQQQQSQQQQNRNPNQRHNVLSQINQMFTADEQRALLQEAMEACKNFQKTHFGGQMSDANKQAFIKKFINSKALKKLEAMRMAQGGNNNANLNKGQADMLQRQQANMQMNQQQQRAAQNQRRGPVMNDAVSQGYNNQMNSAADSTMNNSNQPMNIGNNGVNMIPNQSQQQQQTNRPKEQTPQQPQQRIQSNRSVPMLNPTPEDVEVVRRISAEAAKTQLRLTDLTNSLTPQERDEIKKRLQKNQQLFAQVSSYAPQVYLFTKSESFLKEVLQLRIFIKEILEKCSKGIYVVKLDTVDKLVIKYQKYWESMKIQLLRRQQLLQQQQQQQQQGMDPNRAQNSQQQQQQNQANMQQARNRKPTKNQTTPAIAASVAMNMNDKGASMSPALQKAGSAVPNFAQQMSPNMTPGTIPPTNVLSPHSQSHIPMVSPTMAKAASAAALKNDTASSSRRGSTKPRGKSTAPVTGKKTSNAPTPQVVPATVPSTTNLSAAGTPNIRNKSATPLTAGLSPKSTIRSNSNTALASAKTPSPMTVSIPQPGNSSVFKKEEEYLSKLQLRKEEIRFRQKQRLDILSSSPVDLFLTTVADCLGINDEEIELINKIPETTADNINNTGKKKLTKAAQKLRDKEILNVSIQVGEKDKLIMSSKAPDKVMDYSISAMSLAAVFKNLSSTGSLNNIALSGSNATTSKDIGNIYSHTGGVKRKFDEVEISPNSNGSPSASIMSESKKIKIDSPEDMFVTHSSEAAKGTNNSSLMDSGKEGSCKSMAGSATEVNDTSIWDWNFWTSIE

HepG2 = test: Cytotoxicity in human HepG2 cells; type: cell-based
[4] = Inhibition of Saccharomyces cerevisiae LeuRs
[5] = Half life in human; type: ADME, organism-based; details: in vivo
[6] = Oral bioavailability in rat; type: ADME, organism-based; details: in vivo
[7] = Oral bioavailability in rabbit; type: ADME, organism-based, Oryctolagus cuniculus; details: in vivo
[8] = Inhibition of Saccharomyces cerevisiae IleRS
[9] = Oral bioavailability in dog; type: ADME, organism-based, Canis lupus familiaris; details: in vivo

CN(C)c1ccc(/C=C/c2cc(C(C)(C)C)[o+]c(C(C)(C)C)c2)cc1.[O-][Cl+3]([O-])([O-])[O-]
MIC (Candida [1]): 0.2 to 6.25 µg/mL | MIC (Candida [2]): 0.5 to 1 µg/mL

N#CCC(=O)NNC(=S)Nc1ccc(Cl)c(Cl)c1
pKd [3]: 6.49 | pIC50 (HepG2): 4.00

OB1OCc2cc(F)ccc21 [TAVABOROLE]
pIC50 [4]: 5.68

C=C1C[C@H](N)[C@H](C(=O)O)C1 [ICOFUNGIPEN]
half-life [5]: 7 h | bioavailability [6]: 100% | bioavailability [7]: 100% | pKi [8]: 3.00 | bioavailability [9]: 100%
